# Several values for one entry are separate records, joined by “and”; a condition that tells them apart may be missing. Identical values can stand only once.
# Assay: Single dose oral capsule pharmacokinetics of BHV-3500 in dogs (plasma LC-MS/MS)
# Format: in vivo, beagle dogs
# Design: key to t1/2 / Tmax / Cmax / AUC0-4 hr: X = no plasma exposure
# Details: for increase of plasma level versus no vehicle (Group 4): Group 5, 50 mg with Vehicle 6
# Description: The pharmacokinetics (PK) of BHV-3500 after a single oral capsule of BHV-3500 in dogs were investigated.
# After each dose, blood samples (approximately 3 mL from the jugular vein) for determination of plasma levels of BHV-3500 were obtained from of each dog at six time points (pre-dose; 15, 30, and 60 minutes and 2 and 4 hours post-dose. EDTA was used as the anticoagulant. Plasma samples were frozen at approximately −70′C until analyzed.
# For the determination of BHV-3500 in plasma, a 50 μL aliquot from each sample was transferred into the appropriate well of a 96-well plate to which 10 μL of 50% acetonitrile (ACN) in water was added, followed by 250 μL of internal standard solution (10 ng/mL BHV-3500-d8 in ACN). After sealing the plate and vortexing for approximately 5 minutes, the plate was centrifuged at 4,000 rpm for 10 minutes at 4±4° C. A portion (100 μL) of the resulting supernatant was transferred to into the appropriate well (containing 300 μL 0.15% formic acid in water) of another 96-well plate. This plate was sealed and its contents mixed prior to instrumental analysis.
# Freshly prepared BHV-3500 standard curves and QC samples were analyzed along with the study samples. Instrument calibrators were prepared by adding 10 μL of a stock BHV-3500 solution to 50 μL of blank dog plasma. Blank dog plasma was sourced from BioIVT (Hicksville, NY) and stored frozen at −20° C. Nominal calibrator concentrations ranged from 2.00 to 200 ng/mL. QC samples were prepared at concentrations of 6.00, 50.0 and 150 ng/mL. Calibrators and QC samples were processed for analysis following the extraction procedure described above.
# Calibrator, QC and study samples were analyzed under LC-S/MS instrument conditions detailed in Table 7.
# Calibration curves were calculated from the linear regression (weighting factor of 1/x2) of the analyte to internal standard peak area ratios versus the analyte concentrations. Concentrations of analyte in the samples were determined using the peak area ratios and the regression parameters of the calibration curves.
# Individual animal plasma BHV-3500 concentration data at scheduled (nominal) sampling times were analyzed using the non-compartmental model f r extravascular administration with Phoenix WinNonlin software (Version 8.1; Certara, Princeton, NJ).
# Elimination rate constant values (λz) were calculated by log-linear regression on data points of the terminal phase (using Phoenix WinNonlin's Best Fit Lambda Z Calculation Method option) when allowed by the data; the plasma elimination half-life (t1/2) was calculated as ln(2)/λz. Area under the plasma concentration-time curve values from time zero to the concentration at the 4 hour time point (AUC0-4 hr) were calculated by the linear-up/log-down trapezoidal rule.
# Nominal dose levels were used for PK analysis. The PK parameters listed below were evaluated (as applicable and when allowed by the data). • Elimination half-life (t1/2) • Time of occurrence of maximum plasma concentration (Tmax) • Maximum plasma concentration (Cmax) • Area under plasma concentration-time curve [0 to the 4 hour time point; AUC0-4hr]
# [1] = Group 1, oral capsule, 20 mg BHV-3500, no vehicle, average
# [2] = Group 1, oral capsule, 20 mg BHV-3500, no vehicle, median
# [3] = Group 3, oral capsule, 20 mg BHV-3500 in 25 mg DDM, individual dogs
# [4] = Group 5, oral capsule, 50 mg BHV-3500 in 900 mg vehicle of Formulation 2 (SEDDS excipients), individual dogs
structure (smiles),measurement,setting,value
"Cc1cc(C[C@@H](NC(=O)N2CCC(c3cc4ccccc4[nH]c3=O)CC2)C(=O)N2CCN(C3CCN(C)CC3)CC2)cc2cn[nH]c12 [BHV-3500, (R)—N-(3-(7-methyl-1H indazol-5-yl)-1-(4-(1-methylpiperidin-4-yl)piperazin-1-yl)-1-oxopropan-2-yl)-4-(2-oxo-1,2 dihydroquinolin-3-yl)piperidine-1-carboxamide]",plasma levels at all time points,"Group 1, oral capsule, 20 mg BHV-3500, no vehicle",BQL (BQL = below quantitation limit (2.0 ng/mL))
same,BHV-3500 Concentration in Dog Plasma,"Group 1, oral capsule, 20 mg BHV-3500, no vehicle, 0.25 h post-dose, average",BQL (BQL = below quantitation limit (2.0 ng/mL))
same,BHV-3500 Concentration in Dog Plasma,"Group 1, oral capsule, 20 mg BHV-3500, no vehicle, 0.25 h post-dose, individual dogs",BQL (BQL = below quantitation limit (2.0 ng/mL))
same,BHV-3500 Concentration in Dog Plasma,"Group 1, oral capsule, 20 mg BHV-3500, no vehicle, 0.5 h post-dose, average",BQL (BQL = below quantitation limit (2.0 ng/mL))
same,BHV-3500 Concentration in Dog Plasma,"Group 1, oral capsule, 20 mg BHV-3500, no vehicle, 0.5 h post-dose, individual dogs",BQL (BQL = below quantitation limit (2.0 ng/mL))
same,BHV-3500 Concentration in Dog Plasma,"Group 1, oral capsule, 20 mg BHV-3500, no vehicle, 1 h post-dose, average",BQL (BQL = below quantitation limit (2.0 ng/mL))
same,BHV-3500 Concentration in Dog Plasma,"Group 1, oral capsule, 20 mg BHV-3500, no vehicle, 1 h post-dose, individual dogs",BQL (BQL = below quantitation limit (2.0 ng/mL))
same,BHV-3500 Concentration in Dog Plasma,"Group 1, oral capsule, 20 mg BHV-3500, no vehicle, 2 h post-dose, average",BQL (BQL = below quantitation limit (2.0 ng/mL))
same,BHV-3500 Concentration in Dog Plasma,"Group 1, oral capsule, 20 mg BHV-3500, no vehicle, 2 h post-dose, individual dogs",BQL (BQL = below quantitation limit (2.0 ng/mL))
same,BHV-3500 Concentration in Dog Plasma,"Group 1, oral capsule, 20 mg BHV-3500, no vehicle, 4 h post-dose, average",BQL (BQL = below quantitation limit (2.0 ng/mL))
same,BHV-3500 Concentration in Dog Plasma,"Group 1, oral capsule, 20 mg BHV-3500, no vehicle, 4 h post-dose, individual dogs",BQL (BQL = below quantitation limit (2.0 ng/mL))
same,AUC0-4 hr,[1],X
same,Cmax,[1],X
same,Tmax,[2],X
same,t1/2,[2],X
same,BHV-3500 Concentration in Dog Plasma,"Group 2, oral capsule, 20 mg BHV-3500 in 900 mg vehicle of Formulation 2 (SEDDS excipients), 0.25 h post-dose, average",BQL (BQL = below quantitation limit (2.0 ng/mL))
same,BHV-3500 Concentration in Dog Plasma,"Group 2, oral capsule, 20 mg BHV-3500 in 900 mg vehicle of Formulation 2 (SEDDS excipients), 0.25 h post-dose, individual dogs",BQL (BQL = below quantitation limit (2.0 ng/mL))
same,BHV-3500 Concentration in Dog Plasma,"Group 2, oral capsule, 20 mg BHV-3500 in 900 mg vehicle of Formulation 2 (SEDDS excipients), 0.5 h post-dose, average",BQL (BQL = below quantitation limit (2.0 ng/mL))
same,BHV-3500 Concentration in Dog Plasma,"Group 2, oral capsule, 20 mg BHV-3500 in 900 mg vehicle of Formulation 2 (SEDDS excipients), 0.5 h post-dose, individual dogs",BQL (BQL = below quantitation limit (2.0 ng/mL))
same,BHV-3500 Concentration in Dog Plasma,"Group 2, oral capsule, 20 mg BHV-3500 in 900 mg vehicle of Formulation 2 (SEDDS excipients), 1 h post-dose, individual dogs",BQL (BQL = below quantitation limit (2.0 ng/mL))
same,BHV-3500 Concentration in Dog Plasma,"Group 2, oral capsule, 20 mg BHV-3500 in 900 mg vehicle of Formulation 2 (SEDDS excipients), 2 h post-dose, individual dogs",BQL (BQL = below quantitation limit (2.0 ng/mL)) and 19.4 ng/mL and 8.94 ng/mL
same,BHV-3500 Concentration in Dog Plasma,"Group 2, oral capsule, 20 mg BHV-3500 in 900 mg vehicle of Formulation 2 (SEDDS excipients), 4 h post-dose, individual dogs",BQL (BQL = below quantitation limit (2.0 ng/mL))
same,Cmax,"Group 2, oral capsule, 20 mg BHV-3500 in 900 mg vehicle of Formulation 2 (SEDDS excipients), individual dogs",19.4 ng/mL and 8.94 ng/mL
same,BHV-3500 Concentration in Dog Plasma,"Group 3, oral capsule, 20 mg BHV-3500 in 25 mg DDM, 0.25 h post-dose, average",BQL (BQL = below quantitation limit (2.0 ng/mL))
same,BHV-3500 Concentration in Dog Plasma,"Group 3, oral capsule, 20 mg BHV-3500 in 25 mg DDM, 0.25 h post-dose, individual dogs",BQL (BQL = below quantitation limit (2.0 ng/mL))
same,BHV-3500 Concentration in Dog Plasma,"Group 3, oral capsule, 20 mg BHV-3500 in 25 mg DDM, 0.5 h post-dose, individual dogs",BQL (BQL = below quantitation limit (2.0 ng/mL))
same,BHV-3500 Concentration in Dog Plasma,"Group 3, oral capsule, 20 mg BHV-3500 in 25 mg DDM, 1 h post-dose, individual dogs",BQL (BQL = below quantitation limit (2.0 ng/mL))
same,BHV-3500 Concentration in Dog Plasma,"Group 3, oral capsule, 20 mg BHV-3500 in 25 mg DDM, 2 h post-dose, individual dogs",9.60 ng/mL and BQL (BQL = below quantitation limit (2.0 ng/mL)) and 28.2 ng/mL
same,BHV-3500 Concentration in Dog Plasma,"Group 3, oral capsule, 20 mg BHV-3500 in 25 mg DDM, 4 h post-dose, individual dogs",BQL (BQL = below quantitation limit (2.0 ng/mL))
same,Cmax,[3],9.60 ng/mL and 14.0 ng/mL and 28.2 ng/mL
same,Tmax,[3],30 min
same,BHV-3500 Concentration in Dog Plasma,"Group 4, oral capsule, 50 mg BHV-3500, no vehicle, 0.25 h post-dose, average",BQL (BQL = below quantitation limit (2.0 ng/mL))
same,BHV-3500 Concentration in Dog Plasma,"Group 4, oral capsule, 50 mg BHV-3500, no vehicle, 0.25 h post-dose, individual dogs",BQL (BQL = below quantitation limit (2.0 ng/mL))
same,BHV-3500 Concentration in Dog Plasma,"Group 4, oral capsule, 50 mg BHV-3500, no vehicle, 0.5 h post-dose, average",BQL (BQL = below quantitation limit (2.0 ng/mL))
same,BHV-3500 Concentration in Dog Plasma,"Group 4, oral capsule, 50 mg BHV-3500, no vehicle, 0.5 h post-dose, individual dogs",BQL (BQL = below quantitation limit (2.0 ng/mL))
same,BHV-3500 Concentration in Dog Plasma,"Group 4, oral capsule, 50 mg BHV-3500, no vehicle, 1 h post-dose, individual dogs",4.25 ng/mL and 3.55 ng/mL
same,BHV-3500 Concentration in Dog Plasma,"Group 4, oral capsule, 50 mg BHV-3500, no vehicle, 2 h post-dose, individual dogs",4.35 ng/mL and 6.61 ng/mL
same,BHV-3500 Concentration in Dog Plasma,"Group 4, oral capsule, 50 mg BHV-3500, no vehicle, 4 h post-dose, average",BQL (BQL = below quantitation limit (2.0 ng/mL))
same,BHV-3500 Concentration in Dog Plasma,"Group 4, oral capsule, 50 mg BHV-3500, no vehicle, 4 h post-dose, individual dogs",BQL (BQL = below quantitation limit (2.0 ng/mL))
same,Cmax,"Group 4, oral capsule, 50 mg BHV-3500, no vehicle, individual dogs",4.35 ng/mL and 6.61 ng/mL
same,increase of plasma level versus no vehicle (Group 4),1 hour post-dose,3.4 ×
same,increase of plasma level versus no vehicle (Group 4),2 hours post-dose,6.6 ×
same,BHV-3500 Concentration in Dog Plasma,"Group 5, oral capsule, 50 mg BHV-3500 in 900 mg vehicle of Formulation 2 (SEDDS excipients), 0.25 h post-dose, average",BQL (BQL = below quantitation limit (2.0 ng/mL))
same,BHV-3500 Concentration in Dog Plasma,"Group 5, oral capsule, 50 mg BHV-3500 in 900 mg vehicle of Formulation 2 (SEDDS excipients), 0.25 h post-dose, individual dogs",BQL (BQL = below quantitation limit (2.0 ng/mL))
same,BHV-3500 Concentration in Dog Plasma,"Group 5, oral capsule, 50 mg BHV-3500 in 900 mg vehicle of Formulation 2 (SEDDS excipients), 0.5 h post-dose, average",BQL (BQL = below quantitation limit (2.0 ng/mL))
same,BHV-3500 Concentration in Dog Plasma,"Group 5, oral capsule, 50 mg BHV-3500 in 900 mg vehicle of Formulation 2 (SEDDS excipients), 0.5 h post-dose, individual dogs",BQL (BQL = below quantitation limit (2.0 ng/mL))
same,BHV-3500 Concentration in Dog Plasma,"Group 5, oral capsule, 50 mg BHV-3500 in 900 mg vehicle of Formulation 2 (SEDDS excipients), 1 h post-dose, individual dogs",6.19 ng/mL and 5.55 ng/mL and 22.7 ng/mL
same,BHV-3500 Concentration in Dog Plasma,"Group 5, oral capsule, 50 mg BHV-3500 in 900 mg vehicle of Formulation 2 (SEDDS excipients), 2 h post-dose, individual dogs",13.8 ng/mL and 6.90 ng/mL and 101 ng/mL
same,BHV-3500 Concentration in Dog Plasma,"Group 5, oral capsule, 50 mg BHV-3500 in 900 mg vehicle of Formulation 2 (SEDDS excipients), 4 h post-dose, individual dogs",6.88 ng/mL and 2.62 ng/mL and 14.4 ng/mL
same,AUC0-4 hr,[4],32.8 ng·h/mL and 17.7 ng·h/mL and 161 ng·h/mL
same,Cmax,[4],13.8 ng/mL and 6.90 ng/mL and 101 ng/mL
same,BHV-3500 Concentration in Dog Plasma,"Group 6, oral capsule, 50 mg BHV-3500 in 25 mg DDM, 0.25 h post-dose, average",BQL (BQL = below quantitation limit (2.0 ng/mL))
same,BHV-3500 Concentration in Dog Plasma,"Group 6, oral capsule, 50 mg BHV-3500 in 25 mg DDM, 0.25 h post-dose, individual dogs",BQL (BQL = below quantitation limit (2.0 ng/mL))
same,BHV-3500 Concentration in Dog Plasma,"Group 6, oral capsule, 50 mg BHV-3500 in 25 mg DDM, 0.5 h post-dose, average",BQL (BQL = below quantitation limit (2.0 ng/mL))
same,BHV-3500 Concentration in Dog Plasma,"Group 6, oral capsule, 50 mg BHV-3500 in 25 mg DDM, 0.5 h post-dose, individual dogs",BQL (BQL = below quantitation limit (2.0 ng/mL))
same,BHV-3500 Concentration in Dog Plasma,"Group 6, oral capsule, 50 mg BHV-3500 in 25 mg DDM, 1 h post-dose, individual dogs",BQL (BQL = below quantitation limit (2.0 ng/mL))
